Columns and labels:
Assay type in all cases: in vivo
[1] = test system: pigweed (Amaranthus retroflexus); test: Test A postemergence; conditions: for Pigweed plant response rating: 125 g ai/ha, postemergence, visual injury rating on 0 to 100 scale (0 no effect, 100 complete control), approx. 10 d; for Plant response rating, Pigweed: Postemergence, 500 g ai/ha, 0 to 100 scale where 0 is no effect and 100 is complete control
Source text: (§1) Seeds of plant species selected from barnyardgrass (Echinochloa crus-galli), Kochia (Kochia scoparia), ragweed (common ragweed, Ambrosia elatior), ryegrass, Italian (Italian ryegrass, Lolium multiflorum), crabgrass, large (Digitaria sanguinalis), giant foxtail (Setaria faberii), green foxtail (Setaria viridis), morningglory (Ipomoea spp.), pigweed (Amaranthus retroflexus), velvetleaf (Abutilon theophrasti), wheat (Triticum aestivum), and corn (Zea mays) were planted into a blend of loam soil and sand and treated preemergence with a directed soil spray using test chemicals formulated in anon-phytotoxic solvent mixture which included a surfactant.
(§2) At the same time, plants selected from these crop and weed species and also blackgrass (Alopecurus myosuroides), and Galium (catchweed bedstraw, Galium aparine) were planted in pots containing the same blend of loam soil and sand and treated with postemergence applications of test chemicals formulated in the same manner. Plants ranged in height from 2 to 10 cm and were in the one- to two-leaf stage for the postemergence treatment. Treated plants and untreated controls were maintained in a greenhouse for approximately 10 d, after which time all treated plants were compared to untreated controls and visually evaluated for injury. Plant response ratings, summarized in Table A, are based on a 0 to 100 scale where 0 is no effect and 100 is complete control. A dash (-) response means no test result.

Kochia (Kochia scoparia) [2] = test: Test A postemergence; conditions: for Kochia plant response rating: 125 g ai/ha, postemergence, visual injury rating on 0 to 100 scale (0 no effect, 100 complete control), approx. 10 d; for Plant response rating, Kochia: Postemergence, 500 g ai/ha, 0 to 100 scale where 0 is no effect and 100 is complete control
Source text: as §1, §2

[3] = test system: Galium (catchweed bedstraw, Galium aparine); test: Test A postemergence; conditions: for Galium plant response rating: 125 g ai/ha, postemergence, visual injury rating on 0 to 100 scale (0 no effect, 100 complete control), approx. 10 d; for Plant response rating, Galium: Postemergence, 500 g ai/ha, 0 to 100 scale where 0 is no effect and 100 is complete control
Source text: as §1, §2

[4] = test system: giant foxtail (Setaria faberii); test: Test A postemergence; conditions: for Foxtail, Giant plant response rating: 125 g ai/ha, postemergence, visual injury rating on 0 to 100 scale (0 no effect, 100 complete control), approx. 10 d; for Plant response rating, Foxtail, Giant: Postemergence, 500 g ai/ha, 0 to 100 scale where 0 is no effect and 100 is complete control
Source text: as §1, §2

corn (Zea mays) = test: Test A postemergence; conditions: for Corn plant response rating: 125 g ai/ha, visual injury rating on 0 to 100 scale (0 no effect, 100 complete control), approx. 10 d; for Plant response rating, Corn: 500 g ai/ha
Source text: as §1, §2

[5] = test system: wheat (Triticum aestivum); test: Test A postemergence; conditions: for Wheat plant response rating: 125 g ai/ha, postemergence, visual injury rating on 0 to 100 scale (0 no effect, 100 complete control), approx. 10 d; for Plant response rating, Wheat: Postemergence, 500 g ai/ha, 0 to 100 scale where 0 is no effect and 100 is complete control
Source text: as §1, §2

[6] = test system: barnyardgrass (Echinochloa crus-galli); test: Test A postemergence; conditions: for Barnyardgrass plant response rating: 125 g ai/ha, visual injury rating on 0 to 100 scale (0 no effect, 100 complete control), approx. 10 d; for Plant response rating, Barnyardgrass: 500 g ai/ha
Source text: as §1, §2

[7] = test system: blackgrass (Alopecurus myosuroides); test: Test A postemergence; conditions: for Blackgrass plant response rating: 125 g ai/ha, visual injury rating on 0 to 100 scale (0 no effect, 100 complete control), approx. 10 d; for Plant response rating, Blackgrass: 500 g ai/ha
Source text: as §1, §2

[8] = test system: ragweed (common ragweed, Ambrosia elatior); test: Test A postemergence; conditions: for Ragweed plant response rating: 125 g ai/ha, postemergence, visual injury rating on 0 to 100 scale (0 no effect, 100 complete control), approx. 10 d; for Plant response rating, Ragweed: Postemergence, 500 g ai/ha, 0 to 100 scale where 0 is no effect and 100 is complete control
Source text: as §1, §2

[9] = test system: ryegrass, Italian (Italian ryegrass, Lolium multiflorum); test: Test A postemergence; conditions: for Ryegrass, Italian plant response rating: 125 g ai/ha, postemergence, visual injury rating on 0 to 100 scale (0 no effect, 100 complete control), approx. 10 d; for Plant response rating, Ryegrass, Italian: Postemergence, 500 g ai/ha, 0 to 100 scale where 0 is no effect and 100 is complete control
Source text: as §1, §2

[10] = test system: pigweed (Amaranthus retroflexus); test: Test A preemergence; conditions: Preemergence; for Plant response rating, Pigweed: 125 g ai/ha, visual injury after approximately 10 d, 0 to 100 scale where 0 is no effect and 100 is complete control; for Pigweed plant response rating (0 to 100 scale, 0 is no effect, 100 is complete control): 500 g ai/ha, visual injury approx. 10 d
Source text: as §1, §2

Kochia (Kochia scoparia) [11] = test: Test A preemergence; conditions: for Plant response rating, Kochia: 125 g ai/ha; for Kochia plant response rating (0 to 100 scale, 0 is no effect, 100 is complete control): 500 g ai/ha, visual injury approx. 10 d
Source text: as §1, §2

[12] = test system: giant foxtail (Setaria faberii); test: Test A preemergence; conditions: for Plant response rating, Foxtail, Giant: 125 g ai/ha; for Foxtail, Giant plant response rating (0 to 100 scale, 0 is no effect, 100 is complete control): 500 g ai/ha, visual injury approx. 10 d
Source text: as §1, §2

[13] = test system: barnyardgrass (Echinochloa crus-galli); test: Test A preemergence; conditions: for Plant response rating, Barnyardgrass: 125 g ai/ha; for Barnyardgrass plant response rating (0 to 100 scale, 0 is no effect, 100 is complete control): 500 g ai/ha, visual injury approx. 10 d
Source text: as §1, §2

[14] = test system: ragweed (common ragweed, Ambrosia elatior); test: Test A preemergence; conditions: Preemergence; for Plant response rating, Ragweed: 125 g ai/ha, visual injury after approximately 10 d, 0 to 100 scale where 0 is no effect and 100 is complete control; for Ragweed plant response rating (0 to 100 scale, 0 is no effect, 100 is complete control): 500 g ai/ha, visual injury approx. 10 d
Source text: as §1, §2

[15] = test system: ryegrass, Italian (Italian ryegrass, Lolium multiflorum); test: Test A preemergence; conditions: Preemergence; for Plant response rating, Ryegrass, Italian: 125 g ai/ha, visual injury after approximately 10 d, 0 to 100 scale where 0 is no effect and 100 is complete control; for Ryegrass, Italian plant response rating (0 to 100 scale, 0 is no effect, 100 is complete control): 500 g ai/ha, visual injury approx. 10 d
Source text: as §1, §2

rice (Oryra sativa) = test: Test B flooded paddy test; conditions: Flood, 250 g ai/ha; 0 to 100 scale where 0 is no effect and 100 is complete control; 13 to 15 d
Description: (§3) Plant species in the flooded paddy test selected from rice (Oryra sativa), sedge, umbrella (small-flower umbrella sedge, Cyperus difformis), ducksalad (Heteranthera limosa), and barnyardgrass (Echinochloa crus-galli) were grown to the 2-leaf stage for testing. At time of treatment, test pots were flooded to 3 cm above the soil surface, treated by application of test compounds directly to the paddy water, and then maintained at that water depth for the duration of the test. Treated plants and controls were maintained in a greenhouse for 13 to 15 d, after which time all species were compared to controls and visually evaluated. Plant response ratings, summarized in Table B, are based on a scale of 0 to 100 where 0 is no effect and 100 is complete control. A dash (-) response means no test result.

[16] = test system: sedge, umbrella (small-flower umbrella sedge, Cyperus difformis); test: Test B flooded paddy test; conditions: Flood, 250 g ai/ha; 0 to 100 scale where 0 is no effect and 100 is complete control; 13 to 15 d
Description: as §3

[17] = test system: ducksalad (Heteranthera limosa); test: Test B flooded paddy test; conditions: Flood, 250 g ai/ha; 0 to 100 scale where 0 is no effect and 100 is complete control; 13 to 15 d
Description: as §3

[18] = test system: barnyardgrass (Echinochloa crus-galli); test: Test B flooded paddy test; conditions: Flood, 250 g ai/ha; 0 to 100 scale where 0 is no effect and 100 is complete control; 13 to 15 d
Description: as §3

[19] = Postemergence, 0 to 100 scale where 0 is no effect and 100 is complete control
[20] = Preemergence, visual injury after approximately 10 d, 0 to 100 scale where 0 is no effect and 100 is complete control
[21] = postemergence, 0 to 100 scale, 0 no effect, 100 complete control
[22] = preemergence, 0 to 100 scale (0 no effect, 100 complete control)

| Compound | Pigweed plant response rating [1] | Plant response rating, Pigweed [1] | Kochia plant response rating (Kochia (Kochia scoparia) [2]) | Plant response rating, Kochia (Kochia (Kochia scoparia) [2]) | Galium plant response rating [3] | Plant response rating, Galium [3] | Foxtail, Giant plant response rating [4] | Plant response rating, Foxtail, Giant [4] | Corn plant response rating (corn (Zea mays); postemergence) | Wheat plant response rating [5] | Plant response rating, Wheat [5] | Barnyardgrass plant response rating ([6]; postemergence) | Blackgrass plant response rating ([7]; postemergence) | Ragweed plant response rating [8] | Plant response rating, Ragweed [8] | Ryegrass, Italian plant response rating [9] | Plant response rating, Ryegrass, Italian [9] | Plant response rating, Pigweed [10] | Pigweed plant response rating (0 to 100 scale, 0 is no effect, 100 is complete control) [10] | Kochia plant response rating (0 to 100 scale, 0 is no effect, 100 is complete control) (Kochia (Kochia scoparia) [11]; Preemergence) | also measured |
| --- | --- | --- | --- | --- | --- | --- | --- | --- | --- | --- | --- | --- | --- | --- | --- | --- | --- | --- | --- | --- | --- |
| O=C1NCC(c2ccnc(C(F)(F)F)c2)C1C(=O)Nc1ccccc1F (racemic) [Compound 513] | 30 | 60 | 20 | 50 | 0 | 40 | 80 | 80 | 20 | 0 | 30 | 80 | 20 | 10 | 20 | 0 | 30 | 0 | 0 | 20 | Plant response rating, Corn (corn (Zea mays); [19]): 60; Plant response rating, Barnyardgrass [6, 19]: 90; Plant response rating, Blackgrass [7, 19]: 40; Plant response rating, Kochia (Kochia (Kochia scoparia) [11]; [20]): 0; Plant response rating, Foxtail, Giant [12, 20]: 90; Foxtail, Giant plant response rating (0 to 100 scale, 0 is no effect, 100 is complete control) ([12]; Preemergence): 90; Plant response rating, Barnyardgrass [13, 20]: 40; Barnyardgrass plant response rating (0 to 100 scale, 0 is no effect, 100 is complete control) ([13]; Preemergence): 90; Plant response rating, Ragweed [14]: 0; Ragweed plant response rating (0 to 100 scale, 0 is no effect, 100 is complete control) [14]: 0; Plant response rating, Ryegrass, Italian [15]: 20; Ryegrass, Italian plant response rating (0 to 100 scale, 0 is no effect, 100 is complete control) [15]: 30; Plant response rating, Rice (rice (Oryra sativa)): 30; Plant response rating, Sedge, Umbrella [16]: 0; Plant response rating, Ducksalad [17]: 90; Plant response rating, Barnyardgrass [18]: 30 |
| CCc1ccc(C2CNC(=O)C2C(=O)Nc2ccccc2S(C)(=O)=O)cc1 (stereo not drawn) [Compound 468] | 0 | 0 | 0 | 20 | 20 | 30 | 0 | 0 | 0 | 0 | 20 | 0 | 0 | 0 | 0 | 0 | 0 | 0 | 50 | 80 | Plant response rating, Corn (corn (Zea mays); [21]): 0; Plant response rating, Barnyardgrass [6, 21]: 30; Plant response rating, Blackgrass [7, 21]: 20; Plant response rating, Kochia (Kochia (Kochia scoparia) [11]; [22]): 40; Plant response rating, Foxtail, Giant [12, 22]: 0; Foxtail, Giant plant response rating (0 to 100 scale, 0 is no effect, 100 is complete control) ([12]; Preemergence): 80; Plant response rating, Barnyardgrass [13, 22]: 0; Barnyardgrass plant response rating (0 to 100 scale, 0 is no effect, 100 is complete control) ([13]; Preemergence): 20; Plant response rating, Ragweed [14]: 0; Ragweed plant response rating (0 to 100 scale, 0 is no effect, 100 is complete control) [14]: 70; Plant response rating, Ryegrass, Italian [15]: 0; Ryegrass, Italian plant response rating (0 to 100 scale, 0 is no effect, 100 is complete control) [15]: 0; Plant response rating, Rice (rice (Oryra sativa)): 0; Plant response rating, Sedge, Umbrella [16]: 0; Plant response rating, Ducksalad [17]: 85; Plant response rating, Barnyardgrass [18]: 35 |
